In ChEMBL document CHEMBL1697681, “Predicting phospholipidosis using machine learning” (Mol Pharm, 2010):

Test system: Phospholipidosis
Test: Literature-mined public compounds from Lowe et al phospholipidosis modelling dataset

Row | SMILES | Phospholipidosis
1 | CC1(C)N=C(N)N=C(N)N1OCc1ccc(Cl)c(Cl)c1 [CLOCIGUANIL] | Positive
2 | CCN(CC)CCOc1ccc2c(c1)C(=O)c1cc(OCCN(CC)CC)ccc1-2 [TILORONE] | Positive
3 | O=C(NCC1CCCCN1)c1cc(OCC(F)(F)F)ccc1OCC(F)(F)F (stereo not drawn) [FLECAINIDE] | Negative
4 | Cn1nnc2c(C(N)=O)ncn2c1=O [TEMOZOLOMIDE] | Negative
5 | CCN(CC)C(=O)[C@@H]1C=C2c3cccc4[nH]cc(c34)C[C@H]2N(C)C1 [LYSERGIDE] | Positive
6 | CCN1CC(CCN2CCOCC2)C(c2ccccc2)(c2ccccc2)C1=O (stereo not drawn) [DOXAPRAM] | Negative
7 | NN [HYDRAZINE] | Negative
8 | Cl.Cl.O=C(CCN1CCN2CCCC2C1)N1c2ccccc2Sc2ccc(Cl)cc21 (stereo not drawn) [AZACLORZINE HYDROCHLORIDE] | Negative
9 | CC(O)(CS(=O)(=O)c1ccc(F)cc1)C(=O)Nc1ccc(C#N)c(C(F)(F)F)c1 (stereo not drawn) [BICALUTAMIDE] | Negative
10 | CCOC(=O)C1N=C(c2ccccc2F)c2cc(Cl)ccc2NC1=O (stereo not drawn) [ETHYL LOFLAZEPATE] | Positive
11 | NC[C@@H]1CC[C@@H](N)[C@@H](O[C@H]2[C@H](O)[C@@H](O[C@H]3O[C@H](CO)[C@@H](O)[C@H](N)[C@H]3O)[C@H](N)C[C@@H]2N)O1 [DIBEKACIN] | Positive
12 | NS(=O)(=O)c1cc(C(=O)O)c(NCc2ccco2)cc1Cl [FUROSEMIDE] | Negative
13 | CCOC(=O)NC(C)(C)Cc1ccc(Cl)cc1 [CLOFOREX] | Negative
14 | O=C(N[C@H](CO)[C@H](O)c1ccc([N+](=O)[O-])cc1)C(Cl)Cl [CHLORAMPHENICOL] | Positive
15 | Nc1c2c(nc3ccccc13)CCCC2 [TACRINE] | Negative
16 | CC(CN(C)C)CN1c2ccccc2CCc2ccccc21 (stereo not drawn) [TRIMIPRAMINE] | Positive
17 | CN[C@@H]1[C@@H](O)[C@@H](O[C@@H]2[C@@H](O)[C@H](O[C@H]3O[C@H](C(C)N)CC[C@H]3N)[C@@H](N)C[C@H]2N)OC[C@]1(C)O (stereo partly drawn) [GENTAMICIN C2] | Positive
18 | CN(C)CCON=C1c2ccccc2CCc2ccccc21 [NOXIPTILINE] | Positive
19 | NC(N)=Nc1nc(CSCCC(N)=NS(N)(=O)=O)cs1 [FAMOTIDINE] | Negative
20 | CCCC(CCC)C(=O)O [VALPROIC ACID] | Negative
21 | O=C(CCCN1CCC(O)(c2ccc(Cl)cc2)CC1)c1ccc(F)cc1 [HALOPERIDOL] | Positive
22 | CN(C)[C@@H]1C(O)=C(C(N)=O)C(=O)[C@@]2(O)C(O)=C3C(=O)c4c(O)ccc(Cl)c4[C@@](C)(O)[C@H]3C[C@@H]12 [CHLORTETRACYCLINE] | Negative

Row | SMILES | Phospholipidosis
23 | CC(C)(O/N=C(\C(=O)N[C@@H]1C(=O)N2C(C(=O)[O-])=C(C[n+]3ccccc3)CS[C@H]12)c1csc(N)n1)C(=O)O [CEFTAZIDIME] | Negative
24 | CC(=O)O[C@]1(C(C)=O)CC[C@H]2[C@@H]3C=C(Cl)C4=CC(=O)[C@@H]5C[C@@H]5[C@]4(C)[C@H]3CC[C@@]21C [CYPROTERONE ACETATE] | Negative
25 | CNCCC=C1c2ccccc2CCc2ccccc21 [NORTRIPTYLINE] | Positive
26 | Nc1c(Br)cc(Br)cc1CN[C@H]1CC[C@H](O)CC1 [AMBROXOL] | Positive
27 | CC[C@H]1CN2CCc3cc(OC)c(OC)cc3[C@@H]2C[C@@H]1C[C@H]1NCCc2cc(OC)c(OC)cc21 [EMETINE] | Positive
28 | CN[C@@H]1[C@H](O)[C@H](NC)[C@H]2O[C@@]3(O)C(=O)C[C@@H](C)O[C@H]3O[C@@H]2[C@H]1O [SPECTINOMYCIN] | Positive
29 | [N-]=[N+]=CC(=O)OC[C@H](N)C(=O)O [AZASERINE] | Negative
30 | N=C(N)NCCCCCCCCCCNC(=N)N [SYNTHALIN] | Negative
31 | NC12CC3CC(CC(C3)C1)C2 [AMANTADINE] | Positive
32 | O=C(NC1CCN(CCc2c[nH]c3ccccc23)CC1)c1ccccc1 [INDORAMIN] | Positive
33 | NC(=O)c1ccccc1 [BENZAMIDE] | Positive
34 | Nc1nc(NC2CC2)c2ncn([C@H]3C=C[C@@H](CO)C3)c2n1 [ABACAVIR] | Negative
35 | CN(C)[C@@H]1C(O)=C(C(N)=O)C(=O)[C@@]2(O)C(O)=C3C(=O)c4c(O)cccc4[C@@](C)(O)[C@H]3C[C@@H]12 [TETRACYCLINE] | Negative
36 | CCN(CC)CCCC(C)Nc1ccnc2cc(Cl)ccc12 (stereo not drawn) [CHLOROQUINE] | Positive
37 | CC(c1cc2ccccc2s1)N(O)C(N)=O (stereo not drawn) [ZILEUTON] | Negative
38 | CCCC[C@@H]1CC(=O)[C@]2(O)O[C@@H]3[C@@H](NC)[C@@H](O)[C@@H](NC)[C@H](O)[C@H]3O[C@@H]2O1 [TROSPECTOMYCIN] | Positive
39 | C=CC1=C(C)/C(=C/c2[nH]c(Cc3[nH]c(/C=C4\NC(=O)C(C)=C4C=C)c(C)c3CCC(=O)O)c(CCC(=O)O)c2C)NC1=O [BILIRUBIN] | Positive
40 | CN(C)C(=N)N=C(N)N [METFORMIN] | Negative
41 | CSc1ccc2c(c1)N(CCC1CCCCN1C)c1ccccc1S2 (stereo not drawn) [THIORIDAZINE] | Positive
42 | CCNC(C)Cc1cccc(C(F)(F)F)c1 (stereo not drawn) [FENFLURAMINE] | Positive
43 | CC(C)(N)Cc1ccc(Cl)cc1 [CHLORPHENTERMINE] | Positive
